Experimental data reported in patent publication US20220395497A1, “Cancer Treatment Using Camptothecin Derivatives” (priority 2019, published 2022).

System: adults with recurrence of glioblastoma multiforme (GBM)
Experiment: Phase 2 open-label study of IV AR-67 (7.5 mg/m2 once daily for 5 days, 21-day cycle) in recurrent GBM: tumor response (MRI, MacDonald criteria), PFS, disposition. Cohort 1 = not received or not recently failed (>90 days) bevacizumab; Cohort 2 = recently (<90 days) failed bevacizumab
Type: in vivo, human
Procedure: The primary objective in the rapid bevacizumab failure group (<90 days) was to determine the 2-month PFS.
This solution was reconstituted in dextrose 5% in water to a final concentration between 0.06-0.6 mg/mL Drug (7.5 mg/m2) was to be given until the onset of toxicity requiring discontinuation or tumor progression. Tumor response was assessed=14d after every second cycle and before every third cycle using MRI.

CC[C@@]1(O)C(=O)OCc2c1cc1n(c2=O)Cc2c-1nc1ccc(O)cc1c2[Si](C)(C)C(C)(C)C [AR-67, (205)-7-tert-butyldimethysilyl-10-hydroxycamptothecin]
Best Overall Response: Complete Response, patients (All Patients, N = 46): 0
Best Overall Response: Progressive Disease, patients (All Patients, N = 46): 31
Response at Study Completion or Discontinuation: Complete Response, patients (All Patients, N = 46): 0
Response at Study Completion or Discontinuation: Progressive Disease, patients (All Patients, N = 46): 39
Response at Study Completion or Discontinuation: Stable Disease, patients (All Patients, N = 46): 2
Withdrawal due to Adverse event, patients (%) (All Patients, N = 46): 2.2%
Withdrawal due to Death, patients (%) (All Patients, N = 46): 6.5%
Withdrawal due to Disease progression, patients (%) (All Patients, N = 46): 69.6%
Best Overall Response: Complete Response, patients (Cohort 1, N = 31): 0
Best Overall Response: Partial Response, patients (Cohort 1, N = 31): 3
Best Overall Response: Progressive Disease, patients (Cohort 1, N = 31): 20
Best Overall Response: Stable Disease, patients (Cohort 1, N = 31): 5
Response at Study Completion or Discontinuation: Complete Response, patients (Cohort 1, N = 31): 0
Response at Study Completion or Discontinuation: Partial Response, patients (Cohort 1, N = 31): 1
Response at Study Completion or Discontinuation: Progressive Disease, patients (Cohort 1, N = 31): 28
Response at Study Completion or Discontinuation: Stable Disease, patients (Cohort 1, N = 31): 0
Withdrawal due to Death, patients (%) (Cohort 1, N = 31): 6.5%
Withdrawal due to Disease progression, patients (%) (Cohort 1, N = 31): 77.4%
Best Overall Response: Complete Response, patients (Cohort 2, N = 13): 0
Best Overall Response: Partial Response, patients (Cohort 2, N = 13): 0
Best Overall Response: Progressive Disease, patients (Cohort 2, N = 13): 10
Response at Study Completion or Discontinuation: Complete Response, patients (Cohort 2, N = 13): 0
Response at Study Completion or Discontinuation: Partial Response, patients (Cohort 2, N = 13): 0
Response at Study Completion or Discontinuation: Progressive Disease, patients (Cohort 2, N = 13): 10
Response at Study Completion or Discontinuation: Stable Disease, patients (Cohort 2, N = 13): 2
Withdrawal due to Adverse event, patients (%) (Cohort 2, N = 13): 7.7%
Withdrawal due to Death, patients (%) (Cohort 2, N = 13): 7.7%
Withdrawal due to Disease progression, patients (%) (Cohort 2, N = 13): 53.8%
efficacy, reason for study termination (in vivo): lack of efficacy
outcome (rGBM patients who failed bevacizumab within 90 days of last dose): fared poorly
patients who surpassed the PFS6 endpoint (rGBM patients who had never taken bevacizumab, or had not failed bev treatment within 90 days of last dose): 20%
